Source: US6770287B1, “Biocidal cellulosic material” (The Regents of the University of California, priority 2000, dated 2004)

Columns and labels:
S. aureus = test: AATCC Test Method 100 quantitative antibacterial test (bacterial reduction); assay type: cell-based, Staphylococcu aureus (ATCC 5368); settings: contact time 60 min
Excerpt: (§1) AATCC Test Method 100 was adopted in this study. According to this test method, four pieces of staked circular fabric swatches 4.8±0.1 (about one grams) were inoculated with 1.0±0.1 milliliter of inoculum in a 250 milliliter jar. The inoculum was a nutrient broth culture containing over 1.0×10^6 clone forming units (CFU) of organisms. After the swatches were inoculated, they were neutralized by 100 milliliter of a 0.02% sodium thiosulfate solution in the jar. The contact time was the time between inoculation and neutralization. The jar was vigorously shaken and the neutralized solution was diluted in serial. The dilutions, usually 100, 101, and 102, were plated on nutrient agar and incubated for 18-24 hours at 37° C. The number of bacteria recovered from the inoculated finished fabrics was counted and compared with that from untreated fabrics. Six log reduction means the total inactivation of bacteria, and one log reduction means that finished fabrics reduced bacteria counts from 106 CFU to 105 CFU.
(§2) Finished fabrics prepared from solutions containing 1%-6% of monomethylol-5,5-dimethylhydantoin following the protocol set forth in Example 1 with pickup rates below 1% have been tested.
(§3) Fabrics finished in accordance with the protocol set forth in Example II with Anti-2, i.e., 1,3-dimethylol-5,5-dimethylhydantoin, were also tested with AATCC test method 100, which was briefly described in Example IV. In the tests, a diluted CLOROX® solution containing 0.01 % active chlorine was used to chlorinate the finished fabrics.

E. coli = test: as above; assay type: cell-based, Escherichia coli (ATCC 2666); settings: contact time 60 min
Excerpt: as §1, §2, §3

[1] = Anti-2 2%, #400, last column pair
[2] = Anti-2 2%, #7409, last column pair
[3] = Anti-2 6%, #400, last column pair
[4] = Anti-2 6%, #7409, last column pair
[5] = Anti-2 10%, #400, last column pair
[6] = Anti-2 10%, #7409, last column pair

CC1(C)C(=O)N(CO)C(=O)N1CO [Anti-2, 1,3-dimethylol-5,5-dimethylhydantoin]
6 log: Durable Antibacterial Properties After fifteen washes S. aur. (S. aureus; Anti-2 2%, #400) | Durable Antibacterial Properties After five washes S. aur. (S. aureus; Anti-2 2%, #400) | Durable Antibacterial Properties After ten washes S. aur. (S. aureus; Anti-2 2%, #400) | Durable Antibacterial Properties After twenty washes S. aur. (S. aureus; Anti-2 2%, #400) | Durable Antibacterial Properties After twenty washes S. aur. (S. aureus; [1]) | Durable Antibacterial Properties After fifteen washes S. aur. (S. aureus; Anti-2 2%, #7409) | Durable Antibacterial Properties After five washes S. aur. (S. aureus; Anti-2 2%, #7409) | Durable Antibacterial Properties After ten washes S. aur. (S. aureus; Anti-2 2%, #7409) | Durable Antibacterial Properties After twenty washes S. aur. (S. aureus; Anti-2 2%, #7409) | Durable Antibacterial Properties After twenty washes S. aur. (S. aureus; [2]) | Durable Antibacterial Properties After fifteen washes S. aur. (S. aureus; Anti-2 6%, #400) | Durable Antibacterial Properties After five washes S. aur. (S. aureus; Anti-2 6%, #400) | Durable Antibacterial Properties After ten washes S. aur. (S. aureus; Anti-2 6%, #400) | Durable Antibacterial Properties After twenty washes S. aur. (S. aureus; Anti-2 6%, #400) | Durable Antibacterial Properties After twenty washes S. aur. (S. aureus; [3]) | Durable Antibacterial Properties After fifteen washes S. aur. (S. aureus; Anti-2 6%, #7409) | Durable Antibacterial Properties After five washes S. aur. (S. aureus; Anti-2 6%, #7409) | Durable Antibacterial Properties After ten washes S. aur. (S. aureus; Anti-2 6%, #7409) | Durable Antibacterial Properties After twenty washes S. aur. (S. aureus; Anti-2 6%, #7409) | Durable Antibacterial Properties After twenty washes S. aur. (S. aureus; [4]) | Durable Antibacterial Properties After fifteen washes S. aur. (S. aureus; Anti-2 10%, #400) | Durable Antibacterial Properties After five washes S. aur. (S. aureus; Anti-2 10%, #400) | Durable Antibacterial Properties After ten washes S. aur. (S. aureus; Anti-2 10%, #400) | Durable Antibacterial Properties After twenty washes S. aur. (S. aureus; Anti-2 10%, #400) | Durable Antibacterial Properties After twenty washes S. aur. (S. aureus; [5]) | Durable Antibacterial Properties After fifteen washes S. aur. (S. aureus; Anti-2 10%, #7409) | Durable Antibacterial Properties After five washes S. aur. (S. aureus; Anti-2 10%, #7409) | Durable Antibacterial Properties After ten washes S. aur. (S. aureus; Anti-2 10%, #7409) | Durable Antibacterial Properties After twenty washes S. aur. (S. aureus; Anti-2 10%, #7409) | Durable Antibacterial Properties After twenty washes S. aur. (S. aureus; [6]) | Durable Antibacterial Properties After fifteen washes E. coli (E. coli; Anti-2 2%, #400) | Durable Antibacterial Properties After five washes E. coli (E. coli; Anti-2 2%, #400) | Durable Antibacterial Properties After ten washes E. coli (E. coli; Anti-2 2%, #400) | Durable Antibacterial Properties After twenty washes E. coli (E. coli; Anti-2 2%, #400) | Durable Antibacterial Properties After twenty washes E. coli (E. coli; [1]) | Durable Antibacterial Properties After fifteen washes E. coli (E. coli; Anti-2 2%, #7409) | Durable Antibacterial Properties After five washes E. coli (E. coli; Anti-2 2%, #7409) | Durable Antibacterial Properties After ten washes E. coli (E. coli; Anti-2 2%, #7409) | Durable Antibacterial Properties After twenty washes E. coli (E. coli; Anti-2 2%, #7409) | Durable Antibacterial Properties After twenty washes E. coli (E. coli; [2]) | Durable Antibacterial Properties After fifteen washes E. coli (E. coli; Anti-2 6%, #400) | Durable Antibacterial Properties After five washes E. coli (E. coli; Anti-2 6%, #400) | Durable Antibacterial Properties After ten washes E. coli (E. coli; Anti-2 6%, #400) | Durable Antibacterial Properties After twenty washes E. coli (E. coli; Anti-2 6%, #400) | Durable Antibacterial Properties After twenty washes E. coli (E. coli; [3]) | Durable Antibacterial Properties After fifteen washes E. coli (E. coli; Anti-2 6%, #7409) | Durable Antibacterial Properties After five washes E. coli (E. coli; Anti-2 6%, #7409) | Durable Antibacterial Properties After ten washes E. coli (E. coli; Anti-2 6%, #7409) | Durable Antibacterial Properties After twenty washes E. coli (E. coli; Anti-2 6%, #7409) | Durable Antibacterial Properties After twenty washes E. coli (E. coli; [4]) | Durable Antibacterial Properties After fifteen washes E. coli (E. coli; Anti-2 10%, #400) | Durable Antibacterial Properties After five washes E. coli (E. coli; Anti-2 10%, #400) | Durable Antibacterial Properties After ten washes E. coli (E. coli; Anti-2 10%, #400) | Durable Antibacterial Properties After twenty washes E. coli (E. coli; Anti-2 10%, #400) | Durable Antibacterial Properties After twenty washes E. coli (E. coli; [5]) | Durable Antibacterial Properties After fifteen washes E. coli (E. coli; Anti-2 10%, #7409) | Durable Antibacterial Properties After five washes E. coli (E. coli; Anti-2 10%, #7409) | Durable Antibacterial Properties After ten washes E. coli (E. coli; Anti-2 10%, #7409) | Durable Antibacterial Properties After twenty washes E. coli (E. coli; Anti-2 10%, #7409) | Durable Antibacterial Properties After twenty washes E. coli (E. coli; [6])
